Source: patent publication US11179383B2 (Gilead Sciences, Inc., priority 2018, dated 2021)

Target: T1, α4β7 integrin (Homo sapiens, UniProt P13612+P26010)
T1 construct: monitoring the capture of α4β7 integrin expressing cells on a recombinant MadCAM-1 extracellular domain-coated plate; endogenous in cells; host or cells: RPMI8866 cells
T1 sequence (P13612 34-1032): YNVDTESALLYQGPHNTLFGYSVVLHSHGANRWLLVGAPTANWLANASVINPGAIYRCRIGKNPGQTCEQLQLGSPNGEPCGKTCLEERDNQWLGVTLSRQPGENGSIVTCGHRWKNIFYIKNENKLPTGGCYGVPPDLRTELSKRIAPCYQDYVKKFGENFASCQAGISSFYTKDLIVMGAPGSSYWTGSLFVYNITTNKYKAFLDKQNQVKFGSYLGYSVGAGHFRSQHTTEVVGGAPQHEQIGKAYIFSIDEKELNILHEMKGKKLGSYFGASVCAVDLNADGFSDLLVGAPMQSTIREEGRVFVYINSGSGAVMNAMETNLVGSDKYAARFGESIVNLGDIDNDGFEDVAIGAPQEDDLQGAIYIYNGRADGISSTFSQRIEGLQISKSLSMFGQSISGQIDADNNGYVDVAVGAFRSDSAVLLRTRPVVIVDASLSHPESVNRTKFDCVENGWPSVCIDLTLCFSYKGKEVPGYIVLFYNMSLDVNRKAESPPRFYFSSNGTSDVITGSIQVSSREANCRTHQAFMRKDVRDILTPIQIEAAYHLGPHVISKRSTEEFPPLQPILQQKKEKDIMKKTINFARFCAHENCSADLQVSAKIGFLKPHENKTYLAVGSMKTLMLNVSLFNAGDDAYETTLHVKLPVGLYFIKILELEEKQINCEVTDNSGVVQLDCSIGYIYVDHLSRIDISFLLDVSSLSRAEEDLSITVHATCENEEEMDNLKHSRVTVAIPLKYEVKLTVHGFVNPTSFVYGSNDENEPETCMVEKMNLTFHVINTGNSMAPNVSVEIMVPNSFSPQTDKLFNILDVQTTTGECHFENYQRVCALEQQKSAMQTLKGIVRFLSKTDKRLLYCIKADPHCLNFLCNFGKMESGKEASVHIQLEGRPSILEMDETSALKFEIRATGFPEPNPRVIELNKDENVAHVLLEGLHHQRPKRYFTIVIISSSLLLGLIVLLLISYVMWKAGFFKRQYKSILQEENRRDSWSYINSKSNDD
T1 sequence (P26010 20-798): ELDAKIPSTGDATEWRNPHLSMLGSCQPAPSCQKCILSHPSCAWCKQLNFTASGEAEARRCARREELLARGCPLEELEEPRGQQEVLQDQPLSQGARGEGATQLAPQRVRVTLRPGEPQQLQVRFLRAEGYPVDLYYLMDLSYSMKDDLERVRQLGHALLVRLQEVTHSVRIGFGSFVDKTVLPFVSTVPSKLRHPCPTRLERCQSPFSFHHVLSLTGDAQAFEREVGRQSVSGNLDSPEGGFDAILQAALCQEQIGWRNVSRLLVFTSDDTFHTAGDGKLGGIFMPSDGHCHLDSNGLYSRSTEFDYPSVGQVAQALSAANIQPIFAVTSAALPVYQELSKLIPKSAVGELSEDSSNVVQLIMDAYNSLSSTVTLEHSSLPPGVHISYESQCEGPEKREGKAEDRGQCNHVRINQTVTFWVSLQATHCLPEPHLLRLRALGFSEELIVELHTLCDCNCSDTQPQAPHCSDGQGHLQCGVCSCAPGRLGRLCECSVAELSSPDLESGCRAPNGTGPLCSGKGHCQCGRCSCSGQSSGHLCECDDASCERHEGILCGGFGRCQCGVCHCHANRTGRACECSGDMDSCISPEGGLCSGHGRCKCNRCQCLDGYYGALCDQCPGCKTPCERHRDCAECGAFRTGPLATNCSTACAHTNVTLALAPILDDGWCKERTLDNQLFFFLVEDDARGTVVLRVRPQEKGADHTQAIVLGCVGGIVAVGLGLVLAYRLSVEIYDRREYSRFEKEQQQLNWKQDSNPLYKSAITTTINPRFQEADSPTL
Test: α4β7 Integrin Cell Capture Assay
Format: cell-based
Settings: capture of α4β7 integrin expressing RPMI8866 cells on recombinant MadCAM-1 extracellular domain-coated plate; DMEM+0.5% FBS+0.5 mM MnCl2; read-out: EC50 α4β7
Protocol: α4β7 Integrin Cell Capture Assay
The potency of inhibitors in preventing α4β7 integrin interaction with MadCAM-1 was measured by monitoring the capture of α4β7 integrin expressing cells on a recombinant MadCAM-1 extracellular domain-coated plate.
384-Well plates (Corning 3702) were coated with MadCAM-1 extracellular domain by dispensing 20 μL of MAdCAM-1 at 1.0 μg/mL per well and incubating overnight at 4° C. The plates were then washed with PBS and blocked with 3% BSA for 2 hours before being washed again.
RPMI8866 cells were spun down and re-suspended in assay medium (DMEM+0.5% FBS+0.5 mM MnCl2) at a density of 0.5×10^6 cells/mL. The cells were then dispensed (60 μL/well) to a 384-well plate (Greiner 781280) that was previously spotted with 60 nL of test compound per well. The plates were incubated at 37° C. for 1 hour. 50 μL of cells were transferred to the blocked, MadCAM-1-coated plates and incubated for 30 minutes at 37° C. 10 μL of 12% glutaraldehyde containing Hoechst 33342 (0.06 mg/mL) was added to the cells (2% glutaraldehyde and 0.01 mg/mL final concentrations). The plates were incubated for 90 minutes at room temperature. The plates were then washed 3 times with 70 μL of PBS per well and imaged on a Cellomics ArrayScan instrument. The cells that were bound to the plate were counted and plotted against the compound concentration to determine the EC50 of the test compounds.

SMILES | EC50
[2H]C([2H])([2H])Oc1cc(F)c(F)cc1-c1ccc(C[C@H](NC(=O)c2c(Cl)cccc2Cl)C(=O)O)c2ncccc12 [Example 55, (S)-2-(2,6-dichlorobenzamido)-3-(5-(4,5-difluoro-2-(methoxy-d3)phenyl)quinolin-8-yl)propanoic acid] | 63.1 nM
COc1cccc(OC)c1-c1ccc(C[C@H](NC(=O)c2c(F)cc(NS(=O)(=O)c3ccc(-c4ccnc(F)c4)cc3)cc2F)C(=O)O)c2ccccc12 [Example 103, (S)-2-(2,6-difluoro-4-((4-(2-fluoropyridin-4-yl)phenyl)sulfonamido)benzamido)-3-(4-(2,6-dimethoxyphenyl)naphthalen-1-yl)propanoic acid] | 1.9 nM
CCOCc1cc(OC)c(-c2ccc(C[C@H](NC(=O)c3c(F)cc(NS(=O)(=O)c4ccc(-c5ccnc(F)c5)cc4)cc3F)C(=O)O)c3nsnc23)c(OC)c1 [Example 149, (S)-2-(2,6-difluoro-4-((4-(2-fluoropyridin-4-yl)phenyl)sulfonamido)benzamido)-3-(7-(4-(ethoxymethyl)-2,6-dimethoxyphenyl)benzo[c]-[1,2,5]thiadiazol-4-yl)propanoic acid] | 0.3 nM
CCOCc1cc(OC)c(-c2ccc(CC(NC(=O)c3c(F)cc(NS(=O)(=O)c4ccc(-c5ccnc(F)c5)cc4)cc3F)C(=O)O)c3ccncc23)c(OC)c1 (stereo not shown) [Example 160, 2-(2,6-difluoro-4-((4-(2-fluoropyridin-4-yl)phenyl)sulfonamido)benzamido)-3-(8-(4-(ethoxymethyl)-2,6-dimethoxyphenyl)isoquinolin-5-yl)propanoic acid] | 0.6 nM
Cc1c(-c2ccc(C[C@H](NC(=O)c3c(F)cccc3F)C(=O)O)c3ccccc23)c(=O)n(C)c2ccccc12 (single isomer, unassigned) [Example 120] | 1.5 nM
CC[C@@H](Nc1cc(F)c(C(=O)N[C@@H](Cc2ccc(-c3c(C)n(C)c(=O)n(C)c3=O)c3ccccc23)C(=O)O)c(F)c1)C(F)(F)F [Example 139, (S)-2-(2,6-difluoro-4-(((R)-1,1,1-trifluorobutan-2-yl)amino)benzamido)-3-(4-(1,3,6-trimethyl-2,4-dioxo-1,2,3,4-tetrahydropyrimidin-5-yl)naphthalen-1-yl)propanoic acid] | 0.4 nM
O=C(N[C@@H](Cc1ccc(-c2c(Cl)cc(F)cc2Cl)c2nccnc12)C(=O)O)c1c(Cl)cccc1Cl [Example 157, (S)-3-(8-(2,6-dichloro-4-fluorophenyl)quinoxalin-5-yl)-2-(2,6-dichlorobenzamido)propanoic acid] | 161 nM
O=C(N[C@@H](Cc1ccc(-c2c(Cl)cc(F)cc2Cl)c2ccccc12)C(=O)O)c1c(Cl)cccc1Cl [Example 107, (S)-3-(4-(2,6-dichloro-4-fluorophenyl)naphthalen-1-yl)-2-(2,6-dichlorobenzamido)propanoic acid] | 139 nM
Cc1c(-c2ccc(C[C@H](NC(=O)c3c(Cl)cccc3Cl)C(=O)O)c3ccccc23)c(=O)n(C)c(=O)n1C (single isomer, unassigned) [Example 110] | 14.2 nM
Cc1cc(N2CCOC[C@@H]2C(F)(F)F)cc(F)c1C(=O)N[C@@H](Cc1ccc(-n2c(=O)c3ccncc3n(C)c2=O)n2nccc12)C(=O)O [Example 180] | 0.09 nM
Cc1c(-c2ccc(C[C@H](NC(=O)c3c(F)cccc3F)C(=O)O)c3ccccc23)c(=O)n(C)c2ccccc12 (single isomer, unassigned) [Example 119] | 82.9 nM
Cc1c(-c2ccc(C[C@H](NC(=O)c3c(Cl)cccc3Cl)C(=O)O)c3ncccc23)ncc2ccccc12 [Example 40, (S)-2-(2,6-dichlorobenzamido)-3-(5-(4-methylisoquinolin-3-yl)quinolin-8-yl)propanoic acid] | 32.7 nM

Second part, the molecule after the results:

EC50 | SMILES
11.2 nM | COc1cnn(C)c(=O)c1-c1ccc(C[C@H](NC(=O)c2c(Cl)cccc2Cl)C(=O)O)c2ncccc12 [Example 72, (S)-2-(2,6-dichlorobenzamido)-3-(5-(5-methoxy-2-methyl-3-oxo-2,3-dihydropyridazin-4-yl)quinolin-8-yl)propanoic acid]
19.5 nM | Cc1c(-c2ccc(C[C@H](NC(=O)c3c(Cl)cccc3Cl)C(=O)O)c3ncccc23)c(=O)n(C)c2ccc(F)cc12 (single isomer, unassigned) [Example 12]
152 nM | COc1cc(F)cc(C(F)(F)F)c1-c1ccc(C[C@H](NC(=O)c2c(Cl)cccc2Cl)C(=O)O)c2ncccc12 (single isomer, unassigned) [Example 50]
33.8 nM | Cn1c(=O)c(-c2ccc(C[C@H](NC(=O)c3c(Cl)cccc3Cl)C(=O)O)c3ncccc23)c(C(F)(F)F)c2ccccc21 (single isomer, unassigned) [Example 63]
194 nM | COc1ncc(F)cc1-c1ccc(C[C@H](NC(=O)c2c(Cl)cccc2Cl)C(=O)O)c2ncccc12 [Example 28, (S)-2-(2,6-dichlorobenzamido)-3-(5-(5-fluoro-2-methoxypyridin-3-yl)quinolin-8-yl)propanoic acid]
2.7 nM | Cc1cc(C(F)(F)F)c(-c2ccc(C[C@H](NC(=O)c3c(Cl)cccc3Cl)C(=O)O)c3ncccc23)c(=O)n1C (single isomer, unassigned) [Example 60]
416 nM | Cc1c(-c2ccc(C[C@H](NC(=O)c3c(Cl)cccc3Cl)C(=O)O)c3ncccc23)c(C(F)(F)F)nn1C [Example 18, (S)-2-(2,6-dichlorobenzamido)-3-(5-(1,5-dimethyl-3-(trifluoromethyl)-1H-pyrazol-4-yl)quinolin-8-yl)propanoic acid]
161 nM | COc1c(-c2ccc(C[C@H](NC(=O)c3c(Cl)cccc3Cl)C(=O)O)c3ncccc23)ccc(F)c1F [Example 43, (S)-2-(2,6-dichlorobenzamido)-3-(5-(3,4-difluoro-2-methoxyphenyl)quinolin-8-yl)propanoic acid]
65.6 nM | COc1cccc(Cl)c1-c1ccc(C[C@H](NC(=O)c2c(Cl)cccc2Cl)C(=O)O)c2ncccc12 [Example 37, (2S)-3-(5-(2-chloro-6-methoxyphenyl)quinolin-8-yl)-2-(2,6-dichlorobenzamido) propanoic acid]
10.7 nM | Cn1c(=O)c(-c2ccc(C[C@H](NC(=O)c3c(Cl)cccc3Cl)C(=O)O)c3ncccc23)c(C(F)(F)F)c2ccccc21 [Example 59, (S)-2-(2,6-dichlorobenzamido)-3-(1-methyl-2-oxo-4-(trifluoromethyl)-1,2-dihydro-[3,5′-biquinolin]-8′-yl)propanoic acid]
